Patent US4420643A, “Extraction of phenols from aqueous solutions” (priority 1982, dated 1983)

Tests used:
[1] = Extraction of phenol from 1% aqueous solution with high boiling solvents alone and with TOPO (Example 3, Table III); format: physicochemical; conditions: 24° C., 10 minutes
Experimental: A number of high boiling solvents, which would allow recovery of the extracted phenol without the necessity of distilling the solvent, were evaluted and the distribution coefficient calculated for the solvent alone and containing 133 g/l of TOPO. The aqueous solution extracted contained 1% phenol, which was contacted with the solvent or solvent plus TOPO for 10 minutes at 24° C.

[2] = Concentration of TOPO obtainable in the extraction solution; format: physicochemical
Excerpt: It is advantageous in solvent extraction to maximize the loading of the extracted compound in the organic phase. This also permits a higher ratio of aqueous phase to organic phase (A/O) in the extraction process, that is, a greater volume of aqueous solution treated per volume of organic extractant. It is therefore desirable to maximize the concentration of phosphine oxide in the extraction solution. With TOPO, solutions containing in excess of 30% by weight are readily obtained.

[3] = Water solubility of the solvents
[4] = solvent + TOPO 133 g/l (head: TOPA), A/O = 0.5
[5] = solvent + TOPO 133 g/l, A/O = 1

Molecule	C aq. Final (phenol) [1, 4]	C aq. Final (phenol) [1, 5]	C aq. Final (phenol) ([1]; solvent alone, A/O = 1)	TOPO concentration of solutions readily obtained [2]	water solubility [3]
O=C(c1ccccc1)c1ccccc1 [Benzophenone]	37 ppm	85 ppm			
CC(C)CC(=O)CC(C)C [DIBK, diisobutylketone, reference compound]	26 ppm	60 ppm	285 ppm		
CC(C)OC(C)C [Diisopropyl ether, diisopropyl ether, reference compound]			419 ppm		
c1ccc(Oc2ccccc2)cc1 [Diphenyl ether]	23 ppm	55 ppm	3075 ppm		
c1ccc(Cc2ccccc2)cc1 [Diphenyl methane]	21 ppm	59 ppm			
CC(=O)CC(C)C [Methyl isobutyl ketone, reference compound]	24 ppm	43 ppm	130 ppm		
CCCCCCCCP(=O)(CCCCCCCC)CCCCCCCC [TOPO, tri-n-octylphosphine oxide]				> 30 % by weight	
CCCCCCCCCCCCCO [Tridecanol]	128 ppm	515 ppm	531 ppm		
Diisopropyl naphthalene	18 ppm	46 ppm	5590 ppm		negligible water solubility
Isopropyl naphthalene	18 ppm	45 ppm	4690 ppm		negligible water solubility
